Reference: patent publication US10329304B2, “Compounds and methods for inhibition of hedgehog signaling and phosphodiesterase” (Vanderbilt University, priority 2014, dated 2019)
Entries after “also recorded” stand apart in the source; their conditions may differ.

Assays:
PKA activation = experiment: Immunostaining of autophosphorylated PKA catalytic subunit in NIH3T3 cells; format: cell-based; conditions: SAG-stimulated NIH3T3 cells, Egm 5 μM, Rolipram 10 μM
Procedure: NIH3T3 cells were plated on Poly-D-Lysine-coated glass coverslips and were cultured at 37° C., 5% CO2 in DMEM medium containing 10% fetal bovine serum until reaching 75% confluency. For one set of experiments, cells were then transfected with VSV-tagged PDE4D3 plasmid (gift from Miles Houslay, University of Glasgow, Scotland, UK) using Fugene6 transfection reagent (Roche, Indianapolis, Ind.) per manufacturer's protocol. Afterward, cell medium was replaced with DMEM/0.5% FBS containing either 5 μM eggmanone or DMSO and incubated overnight at 37° C., 5% CO2. Cells were fixed in 4% PFA at room temperature for 10 minutes prior to permeabilization, blocking, and staining with primary antibodies against Arl13b (gift of Tamary Caspary, Emory University, Atlanta, Ga.) and VSV (AbCam, Cambridge, Mass.). Fluorescent immunocytochemistry was performed using species-specific, secondary antibodies (Jackson Immunoresearch, West Grove, Pa.). For additional immunocytochemistry experiment, cells were treated with 20 nM SAG in the presence or absence of 5 uM Eggmanone. After overnight incubation, cells were washed with PBS, fixed for 10 minutes in 4% PFA, permeabilized 20 minutes at −20C with cold methanol, blocked with PBS/1% BSA, and incubated with primary antibodies to phospho-PKA catalytic domain Thr197 (Cell Signaling, Danvers, Mass.) and then to Arl13b. An additional overnight blocking step using unconjugated rabbit IgG was required between primary antibody incubations since both antibodies were produced in rabbit. Fluorescent conjugated secondary antibodies were used for visualization. Data analysis was performed in part through the use of the VUMC Cell Imaging Shared Resource.
Using ImageJ software (National Institutes of Health, developed by W. Rasband), a region of interest was created using the magic wand tool on Arl13b channel and transposed to the Gli2 channel, and integrated density was measured and reported as arbitrary units (a.u.). For phospho-PKA, using ImageJ, a line selection tool was used to select a line projected through the length of the primary cilia and an equal length beyond. The intensity values were potted and the cumulative florescence (area under the curve) was calculated for three cilia, blindly, for each treatment. These values for cilia and pericilia domain were analyzed by a two tailed students t-test. For correlation analysis, correlation coefficient for intensity of gamma-tubulin and phosphor-PKA were calculated and compared among treatments with students t-test.

Gli2 trafficking = experiment: Gli2 ciliary localization and nuclear fraction western blot in NIH3T3 cells; format: cell-based; conditions: SAG 20 nM; for Gli2 localization in the primary cilium: 5 μM; for SAG-induced nuclear accumulation of full-length Gli2: Egm 10 μM, FSK 30 μM
consensus PDE4D sequence = consensus PDE4D sequence (Homo sapiens, UniProt Q08499); experiment: PDE4D inhibition (consensus PDE4D sequence); format: biochemical
Sequence of consensus PDE4D sequence (Q08499 whole entry): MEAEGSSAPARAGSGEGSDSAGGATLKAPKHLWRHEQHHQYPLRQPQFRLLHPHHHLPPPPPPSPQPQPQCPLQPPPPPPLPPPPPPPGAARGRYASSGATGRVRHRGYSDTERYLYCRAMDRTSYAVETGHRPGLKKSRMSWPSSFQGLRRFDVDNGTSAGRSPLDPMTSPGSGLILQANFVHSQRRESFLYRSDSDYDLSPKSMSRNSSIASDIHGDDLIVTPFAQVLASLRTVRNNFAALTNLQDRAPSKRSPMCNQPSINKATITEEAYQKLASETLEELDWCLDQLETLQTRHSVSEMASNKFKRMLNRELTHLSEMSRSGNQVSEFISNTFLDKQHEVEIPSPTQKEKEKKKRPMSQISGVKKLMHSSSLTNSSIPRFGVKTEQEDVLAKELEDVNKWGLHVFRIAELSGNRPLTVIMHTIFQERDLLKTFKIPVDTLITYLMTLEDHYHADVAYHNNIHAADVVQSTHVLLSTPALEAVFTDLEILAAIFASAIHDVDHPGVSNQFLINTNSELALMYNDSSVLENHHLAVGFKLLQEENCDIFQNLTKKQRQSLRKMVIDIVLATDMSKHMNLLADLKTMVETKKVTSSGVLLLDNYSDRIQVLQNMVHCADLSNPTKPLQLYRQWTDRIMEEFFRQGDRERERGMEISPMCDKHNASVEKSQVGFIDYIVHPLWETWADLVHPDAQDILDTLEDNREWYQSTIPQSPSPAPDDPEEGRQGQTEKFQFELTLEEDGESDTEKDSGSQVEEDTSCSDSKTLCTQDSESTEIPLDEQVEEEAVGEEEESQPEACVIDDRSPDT
Source text: First, the contribution of PDE4 was revisited as a potential explanation for the observed mechanistic drift.

Gli1 transcription = experiment: Sufu−/− mouse embryonic fibroblasts qRT-PCR; format: cell-based; conditions: Gli1 and Ptch1

Structure (SMILES)	PKA activation (phospho-PKA-C staining), spatial distribution (PKA activation)	PKA activation (phospho-PKA-C staining), spatial distribution (PKA activation; listed as Egm)	Gli2 localization in the primary cilium (Gli2 trafficking)	Gli2 localization in the primary cilium (Gli2 trafficking; listed as Egm)	SAG-induced nuclear accumulation of full-length Gli2 (Gli2 trafficking)	SAG-induced nuclear accumulation of full-length Gli2 (Gli2 trafficking; listed as Egm)	PKA activation (phospho-PKA-C staining), spatial distribution (PKA activation; listed as eggmanone)	Gli2 localization in the primary cilium (Gli2 trafficking; listed as eggmanone)	SAG-induced nuclear accumulation of full-length Gli2 (Gli2 trafficking; listed as eggmanone)	PDE4D inhibition in words (consensus PDE4D sequence)	Transcriptional inhibition in the Sufu−/− cell line, in words (Gli1 transcription)
C=C(C)Cn1c(SCC(=O)c2cccs2)nc2sc3c(c2c1=O)CCCC3 [EGM, Eggmanone]	increases local PKA activation at the base of the primary cilia; also recorded: spatially restricted activation of PKA around the centrosome	increases local PKA activation at the base of the primary cilia; also recorded: increases local PKA activation at the basal body	significantly increased Gli2 localization in the cilium	significantly increased Gli2 localization in the cilia	abrogated	abrogated	–	–	–	–	–
C=C(C)Cn1c(SCC(=O)c2cccs2)nc2sc3c(c2c1=O)CCCC3 [Eggmanone, 3-(2-methylallyl)-2-((2-oxo-2-(thiophen-2-yl)ethyl)thio)-5,6,7,8-tetrahydrobenzo[4,5]thieno[2,3-d]pyrimidine-4(3H)-one]	significantly increased the intensity of PKA activation almost exclusively at the basal body	–	significantly more Gli2 accumulated in Eggmanone-treated cilia than in controls	–	blunted the nuclear accumulation of the full-length Gli2	–	significantly increased the intensity of PKA activation almost exclusively in the basal body	more Gli2 accumulated in eggmanone-treated cilium than in controls	blunted the nuclear accumulation of the full-length Gli2	–	–
CCCn1c(SCC(=O)c2cccs2)nc2sc3c(c2c1=O)CCCC3 [Formula 9e]	–	–	–	–	–	–	–	–	–	tracked well with EGM1's IC50:EC50 ratio	general ability to inhibit transcriptional activity
C=C(C)Cn1c(SCC(=O)c2ccccc2)nc2sc3c(c2c1=O)CCCC3 [Formula 9g]	–	–	–	–	–	–	–	–	–	tracked well with EGM1's IC50:EC50 ratio	general ability to inhibit transcriptional activity
